The record followed here is patent US20120094919A1, “USE OF TRIPEPTIDES” (priority 2009, published 2012).

Type in all cases: cell-based
Conditions in all cases: 3 days incubation

Assay [1] deals with Hyaluronan synthesis in normal human fibroblasts (NHF). The assay can be described thus: Hyaluronan synthesis in normal human fibroblasts (Hyaluronan Assay Kit). As for the experimental part:
Normal human fibroblasts (NHF) were seeded in 96 well cell culture plates (Nunclon). After three days of growth a tripeptide derivative of the present invention was added in medium without FCS and the cells were incubated for an additional three days. Secreted Hyaluronan synthesis in the growth medium was measured using the Hyaluronan Assay Kit from Echelon (Salt Lake City, Utah).
(§1) The results were evaluated relative to a control consisting of cells that have not been treated with the tripeptide derivative of formula (I) and which is set to 100%.

For assay [2], the system named is Decorin synthesis in normal human fibroblasts (NHF). Kind of assay: Decorin synthesis in normal human fibroblasts (EIA). How it is done:
(§2) Normal human fibroblasts (NHF) were grown in 96 well cell culture plates (Nunclon). After three days a tripeptide derivative of the present invention was added in medium without FCS and the cells were incubated for an additional three days. To measure Decorin synthesis an enzyme linked immunoassay (EIA) was performed. In brief: the cells were fixed with 4% paraformaldehyde, and permeabilized with 0.5 Triton-X100 followed by blocking of unspecific binding sites with 5% skim milk. To stain for Decorin the cells were incubated with goat-anti-Decorin antibody (R&Dsystems) which was detected with rabbit-anti-goat HRP conjugated (Pierce) secondary antibody. After addition of substrate Decorin synthesis was measured at 492 nm in an absorbance plate reader (Multiskan Ascent, Thermolabsystems).
as §1

Assay [3] concerns Lumican synthesis in normal human fibroblasts (NHF). The assay can be described thus: Lumican synthesis in normal human fibroblasts (EIA). As for the experimental part:
as §2, with “well” for “well cell”, “Lumican” for “Decorin”, “goat-anti-Lumican (L-20)” for “goat-anti-Decorin”, “(Santa Cruz Biotechnology, sc-27718)” for “(R&Dsystems)”, “[…]” for “rabbit-anti-goat”
as §1

Setting [4] is: 100 μM, relative to untreated control.
[5] abbreviates: 25 μM, untreated control = 100%.
The mark [6] stands for this setting: 50 μM, untreated control = 100%.
Setting [7] is: 10 μM, untreated control = 100%.
Where [8] appears, read: 12.5 μM, untreated control = 100%.

For “Caprinoyl-Lys-Val-Lys-OH*2TFA [Tripeptide No 13]”, in assay [1] (setting [4]), the “Synthesis Stimulation of Hyaluronan” value is “inactive”. Also, the “Synthesis Stimulation of Decorin” value in assay [2] (setting [4]) was “inactive”. Further, in assay [3] (setting [4]), the “Synthesis Stimulation of Lumican” value was “inactive”.
Take “H-Lys-Val-Lys-OH *3 TFA [Tripeptide No 15]”: the “Synthesis Stimulation of Hyaluronan” value in assay [1] (setting [4]) was “inactive”. For the same substance, in assay [2] (setting [4]), the “Synthesis Stimulation of Decorin” value is “inactive”. Moreover, the “Synthesis Stimulation of Lumican” value in assay [3] (setting [4]) is “inactive”.
On to “Lauroyl-Lys-Val-Lys-OH*2TFA [Tripeptide No 12]”, for which the “Synthesis Stimulation of Hyaluronan” value in assay [1] (setting [4]) is “inactive”. In addition, the “Synthesis Stimulation of Decorin” value in assay [2] (setting [4]) is “inactive”. In assay [3] (setting [4]), the “Synthesis Stimulation of Lumican” value is “inactive”.
Turning to “Myristoyl-Lys-Val-Lys-OH*2TFA [Tripeptide No 11]”, the “Synthesis Stimulation of Hyaluronan” value in assay [1] (setting [4]) is “inactive”. Also, the “Synthesis Stimulation of Decorin” value in assay [2] (setting [4]) is “inactive”. In assay [3] (setting [4]), the “Synthesis Stimulation of Lumican” value is “inactive”.
For the substance “Palm-Lys-Ile-Dab-OH *2TFA [Tripeptide No 4]”, the “Synthesis Stimulation of Hyaluronan” value in assay [1] (setting [5]) came out at 180%.
Consider “Palm-Lys-Leu-Dab-OH *2TFA [Tripeptide No 6]”, for which, in assay [1] (setting [6]), the “Synthesis Stimulation of Hyaluronan” value is listed as 220%.
Take “Palm-Lys-Leu-Lys-OH *2 TFA [Tripeptide No 3]”: the “Synthesis Stimulation of Hyaluronan” value in assay [1] (setting [5]) worked out at 180%.
In the case of “Palm-Lys-Nva-Dab-OH *2TFA [Tripeptide No 5]”, in assay [1] (setting [5]), the “Synthesis Stimulation of Hyaluronan” value amounted to 220%.
Same read-out and setting: the value for “Palm-Lys-Val-Dab-NH-Hexadecyl *2 TFA [Tripeptide No 7]” was 300%.
Consider “Palm-Lys-Val-Dab-OH *2 TFA [Tripeptide No 18]”, for which the “Synthesis Stimulation of Hyaluronan” value in assay [1] (setting [4]) was “inactive”. In assay [2] (setting [4]), the “Synthesis Stimulation of Decorin” value was “inactive”. Also, the “Synthesis Stimulation of Lumican” value in assay [3] (setting [4]) is “inactive”.
Turning to “Palm-Lys-Val-Dap-OH *2 TFA [Tripeptide No 17]”, the “Synthesis Stimulation of Hyaluronan” value in assay [1] (setting [4]) was “inactive”. Moreover, the “Synthesis Stimulation of Decorin” value in assay [2] (setting [4]) is “inactive”. The “Synthesis Stimulation of Lumican” value in assay [3] (setting [4]) was “inactive”.
As for “Palm-Lys-Val-Lys-OH *2 TFA [Tripeptide No 1]”, the “Synthesis Stimulation of Hyaluronan” value in assay [1] (setting [7]) came out at 220%. The “Synthesis Stimulation of Decorin” value in assay [2] (setting [5]) was 200%/25 μM. Further, in assay [3] (setting [7]), the “Synthesis Stimulation of Lumican” value came to 120%.
For the substance “Palm-Lys-Val-Orn-OH *2 TFA [Tripeptide No 16]”, in assay [1] (setting [4]), the “Synthesis Stimulation of Hyaluronan” value was “inactive”. Moreover, the “Synthesis Stimulation of Decorin” value in assay [2] (setting [4]) was “inactive”. Moreover, the “Synthesis Stimulation of Lumican” value in assay [3] (setting [4]) was “inactive”.
With “Palm-Orn-Val-Lys-OH *2 TFA [Tripeptide No 2]”, the “Synthesis Stimulation of Hyaluronan” value in assay [1] (setting [6]) stood at 180%.
Turning to “Stearoyl-Lys-Val-Lys-OH*2TFA [Tripeptide No 14]”, the “Synthesis Stimulation of Hyaluronan” value in assay [1] (setting [4]) was “inactive”. Also, the “Synthesis Stimulation of Decorin” value in assay [2] (setting [4]) was “inactive”. Further, in assay [3] (setting [4]), the “Synthesis Stimulation of Lumican” value was “inactive”.
For “Tetradecyl-NH—C(O)-Arg-Val-Arg-OH *2 TFA [Tripeptide No 10]”, the “Synthesis Stimulation of Hyaluronan” value in assay [1] (setting [5]) is on record as 220%.
For “Tetradecyl-NH—C(O)-Dab-Val-Dab-OH *2 TFA [Tripeptide No 8]”, in assay [1] (setting [8]), the “Synthesis Stimulation of Hyaluronan” value turned out to be 400%. The “Synthesis Stimulation of Decorin” value in assay [2] (setting [8]) came to 170%. Further, in assay [3] (100 μM, untreated control = 100%), the “Synthesis Stimulation of Lumican” value is given as 165%/100 μM.
On to “Tetradecyl-NH—C(O)-Lys-Ile-Dab-OH *2 TFA [Tripeptide No 9]”, for which the “Synthesis Stimulation of Hyaluronan” value in assay [1] (setting [5]) is 220%.
